Data reported in ChEMBL document CHEMBL4229350, “Antimicrobial activity and self-assembly behavior of antimicrobial peptide chensinin-1b with lipophilic alkyl tails” (Eur J Med Chem, 2018).
Values after ≈ are worked out from the molar mass of the structure shown. Active and inactive are the calls of the source. The calls are words filed in the database; no cut-off is given here. Peptide text beside a SMILES is read from it. * marks the point of attachment. Palmitoyl = CCCCCCCCCCCCCCCC(=O)*

Key:
[1] = test system: U-937; experiment: Antiinflammatory activity in human U937 cells assessed as inhibition of LPS-induced TNF-alpha production after 24 hrs by ELISA; assay type: functional, cell-based
[2] = test system: U-937; experiment: Antiinflammatory activity in human U937 cells assessed as inhibition of LPS-induced TNF-alpha production at 3.13 uM after 24 hrs by ELISA relative to control; assay type: functional; settings: U-937, 24 h
[3] = test system: Enterococcus faecium; experiment: Antimicrobial activity against Enterococcus faecium CGMCC 1.2334 after 18 hrs by micro dilution method; assay type: functional; settings: CGMCC 1.2334, 18 h
[4] = test system: Pseudomonas aeruginosa; experiment: Antimicrobial activity against Pseudomonas aeruginosa CGMCC 1.860 after 18 hrs by micro dilution method; assay type: functional; settings: CGMCC 1.860, 18 h
[5] = test system: U-937; experiment: Antiinflammatory activity in human U937 cells assessed as inhibition of LPS-induced IL-6 production at 6.25 uM after 24 hrs by ELISA relative to control; assay type: functional; settings: U-937, 24 h
[6] = Self-assembly property assessed as diameter of monodispersed micelles at 1 mg/ml at pH 2 by TEM analysis; assay type: physicochemical
[7] = test system: Bacillus cereus; experiment: Antimicrobial activity against Bacillus cereus AS 1.126 after 18 hrs by micro dilution method; assay type: functional; settings: AS 1.126, 18 h
[8] = test system: Staphylococcus aureus; experiment: Antimicrobial activity against Staphylococcus aureus AS 1.72 after 18 hrs by micro dilution method; assay type: functional; settings: AS 1.72, 18 h
[9] = Self-assembly property assessed as diameter of tightly packed nanofibers at 1 mg/ml at pH 2 by TEM analysis; assay type: physicochemical
[10] = test system: Lipopolysaccharide (LPS); experiment: Induction of LPS micelles disaggergation assessed as small particle distribution at 2 uM by DLS method
[11] = test system: Staphylococcus aureus; experiment: Antimicrobial activity against Staphylococcus aureus AS 1.72 assessed as induction of bacterial cytoplasmic membrane depolarization at 2 times MIC after 6 mins by diSC3-5 dye-based fluorescence assay; assay type: functional, organism-based
[12] = test system: Lipopolysaccharide (LPS); experiment: Binding affinity to Escherichia coli 0111:B4 LPS by ITC method
[13] = test system: Staphylococcus aureus; experiment: Antimicrobial activity against Staphylococcus aureus AS 1.72 assessed as induction of outer membrane permeabilization by measuring NPN uptake by fluorescence assay; assay type: functional, organism-based
[14] = test system: HeLa; experiment: Cytotoxicity against human HeLa cells assessed as reduction in cell viability after 1 hr by MTT assay; assay type: functional, cell-based
[15] = test system: Lipid bilayer; experiment: Induction of membrane permeabilization in calcein loaded PC/cholesterol large unilamellar vesicles assessed as calcein leakage at 50 uM after 10 mins by fluorescence assay relative to control
[16] = test system: Lipopolysaccharide (LPS); experiment: Binding affinity to Escherichia coli 0111:B4 LPS assessed as equilibrium association constant by ITC method
[17] = Self-assembly property assessed as diameter of monodispersed micelles at 1 mg/ml at pH 7 by TEM analysis; assay type: physicochemical
[18] = test system: Lipid bilayer; experiment: Induction of membrane permeabilization in calcein loaded PG/CL large unilamellar vesicles assessed as calcein leakage at 3 uM after 10 mins by fluorescence assay relative to control
[19] = test system: Lipid bilayer; experiment: Induction of membrane permeabilization in calcein loaded LPS/PC/PG large unilamellar vesicles assessed as calcein leakage after 15 mins by fluorescence assay
[20] = test system: Lipid bilayer; experiment: Induction of membrane permeabilization in calcein loaded PG/CL large unilamellar vesicles assessed as calcein leakage at 6 uM after 15 mins by fluorescence assay relative to control
[21] = test system: Lipid bilayer; experiment: Induction of membrane permeabilization in PC/cholesterol large unilamellar vesicles assessed as blue shift by Tryptophan fluorescence spectroscopy
[22] = test system: Escherichia coli; experiment: Antimicrobial activity against Escherichia coli AS 1.349 assessed as induction of bacterial cytoplasmic membrane depolarization at 2 times MIC after 7 mins by diSC3-5 dye-based fluorescence assay; assay type: functional, organism-based
[23] = test system: Lipopolysaccharide (LPS); experiment: Induction of LPS micelles disaggergation assessed as abundant particle size formation at 2 uM by DLS method
[24] = test system: Escherichia coli; experiment: Antimicrobial activity against Escherichia coli AS 1.349 after 18 hrs by micro dilution method; assay type: functional; settings: AS 1.349, 18 h
[25] = test system: U-937; experiment: Antiinflammatory activity in human U937 cells assessed as inhibition of LPS-induced TNF-alpha production at 12.6 uM after 24 hrs by ELISA relative to control; assay type: functional; settings: U-937, 24 h
[26] = test system: MCF7; experiment: Cytotoxicity against human MCF7 cells assessed as reduction in cell viability after 1 hr by MTT assay; assay type: functional, cell-based; settings: MCF7, 1 h
[27] = test system: Lipid bilayer; experiment: Induction of membrane permeabilization in calcein loaded PG/CL/PE large unilamellar vesicles assessed as calcein leakage at 6 uM after 15 mins by fluorescence assay relative to control
[28] = test system: A-375; experiment: Cytotoxicity against human A375 cells assessed as reduction in cell viability after 1 hr by MTT assay; assay type: functional, cell-based; settings: A-375, 1 h
[29] = test system: Lipid bilayer; experiment: Induction of membrane permeabilization in PG/CL large unilamellar vesicles assessed as blue shift at compound to lipid ratio of 60 by Tryptophan fluorescence spectroscopy
[30] = test system: Escherichia coli; experiment: Antimicrobial activity against Escherichia coli AS 1.349 assessed as induction of outer membrane permeabilization by measuring NPN uptake by fluorescence assay; assay type: functional, organism-based
[31] = test system: Lipid bilayer; experiment: Induction of membrane permeabilization in PG/CL/PE large unilamellar vesicles assessed as blue shift at compound to lipid ratio of 10 by Tryptophan fluorescence spectroscopy
[32] = Cytotoxicity against human U937 cells assessed as cell viability at 3.13 to 12.6 uM after 1 hr by MTT assay relative to control; assay type: cell-based, U-937; settings: read-out: Activity
[33] = test system: Lactococcus lactis; experiment: Antimicrobial activity against Streptococcus lactis AS 1.1690 after 18 hrs by micro dilution method; assay type: functional; settings: AS 1.1690, 18 h
[34] = test system: Enterococcus faecalis; experiment: Antimicrobial activity against Enterococcus faecalis CGMCC 1.595 after 18 hrs by micro dilution method; assay type: functional; settings: CGMCC 1.595, 18 h
[35] = test system: Lipid bilayer; experiment: Induction of membrane permeabilization in calcein loaded PG/CL/PE large unilamellar vesicles assessed as calcein leakage at 3 uM after 10 mins by fluorescence assay relative to control
[36] = test system: U-937; experiment: Antiinflammatory activity in human U937 cells assessed as inhibition of LPS-induced IL-6 production at 12.6 uM after 24 hrs by ELISA relative to control; assay type: functional; settings: U-937, 24 h
[37] = test system: U-937; experiment: Antiinflammatory activity in human U937 cells assessed as inhibition of LPS-induced IL-6 production after 24 hrs by ELISA; assay type: functional, cell-based
[38] = test system: Lipid bilayer; experiment: Induction of membrane permeabilization in calcein loaded LPS/PC/PG large unilamellar vesicles assessed as calcein leakage at 50 uM after 15 mins by fluorescence assay relative to control
[39] = test system: U-937; experiment: Antiinflammatory activity in human U937 cells assessed as inhibition of LPS-induced IL-6 production at 3.13 uM after 24 hrs by ELISA relative to control; assay type: functional; settings: U-937, 24 h
[40] = test system: U-937; experiment: Antiinflammatory activity in human U937 cells assessed as inhibition of LPS-induced TNF-alpha production at 6.25 uM after 24 hrs by ELISA relative to control; assay type: functional; settings: U-937, 24 h
[41] = Hemolytic activity against human erythrocytes after 1 hr; assay type: ADME, cell-based, Erythrocyte

For `CCCCCCCCCCCCCCCC(=O)N[C@@H](CO)C(=O)N[C@@H](CCCCN)C(=O)N[C@H](C(=O)N[C@@H](Cc1c[nH]c2ccccc12)C(=O)N[C@@H](CCCNC(=N)N)C(=O)N[C@@H](Cc1cnc[nH]1)C(=O)N[C@@H](Cc1c[nH]c2ccccc12)C(=O)N[C@@H](CCCNC(=N)N)C(=O)N[C@@H](CCCNC(=N)N)C(=O)N[C@@H](Cc1ccccc1)C(=O)N[C@@H](Cc1c[nH]c2ccccc12)C(=O)N[C@@H](Cc1cnc[nH]1)C(=O)N[C@@H](CCCNC(=N)N)C(=O)N[C@@H](C)C(=O)N[C@@H](Cc1cnc[nH]1)C(=O)N[C@@H](CCCNC(=N)N)C(=O)N[C@@H](CCCCN)C(=O)N[C@@H](CC(C)C)C(=O)O)C(C)C` (Palmitoyl-SKVWRHWRRFWHRAHRKL-OH), the inhibition [1] was “Dose-dependent effect”, the inhibition at 3.13 µM [2] was 24% and the MIC [3] was 3.13 µM (≈ 8.71 µg/mL). For the same compound, the MIC [4] was 6.25 µM (≈ 17.4 µg/mL), the inhibition at 6.25 µM [5] was 31% and the Activity [6] was 5460 nm. For the same compound, the MIC [7] was 6.25 µM (≈ 17.4 µg/mL), the MIC [8] was 12.5 µM (≈ 34.8 µg/mL) and the Activity [9] was 200 nm. For the same compound, the Activity [10] was 400 nm, the Activity [11] was “Active” and the Kd [12] was 8.77 µM. The Activity [13] was “Dose-dependent effect”, the IC50 [14] was 21 µM and the Activity [15] was 20%. It also gave a Ka [16] of 114 mM⁻¹, an Activity [17] of 24 nm and an Activity [18] of 46%. For the same compound, the Activity [19] was “Dose-dependent effect”, the Activity [20] was 80% and the Activity [21] was “inactive”. The Activity [22] was “Active”, the Activity [23] was 100 nm and the MIC [24] was 12.5 µM (≈ 34.8 µg/mL). It also gave an inhibition at 12.6 µM [25] of 35%, an IC50 [26] of 20.6 µM and an Activity [27] of 54%. The IC50 [28] was 18.2 µM, the Activity [29] was 18 nm and the Activity [30] was “Dose-dependent effect”. The Activity [31] was 14 nm, the viability at 1 h, up to 12.6 µM [32] was 80% and the MIC [33] was 3.13 µM (≈ 8.71 µg/mL). The MIC [34] was 6.25 µM (≈ 17.4 µg/mL), the Activity [35] was 33% and the inhibition at 12.6 µM [36] was 35%. The inhibition [37] was “Dose-dependent effect”, the Activity [38] was 55% and the inhibition at 3.13 µM [39] was 27%. It also gave an inhibition at 6.25 µM [40] of 32% and an HC50 at 1 h [41] of over 500 µM.
